Measurements: the supplement of paper PMC10307832

Tests used:
Assay in all cases: relative viability (nuclei count vs DMSO), 5 days (fraction); higher = more cells survive
Sulindac + Decitabine = compound: CC1=C(CC(=O)O)c2cc(F)ccc2/C1=C\c1ccc([S+](C)[O-])cc1 [Sulindac] + Nc1ncn([C@H]2C[C@H](O)[C@@H](CO)O2)c(=O)n1 [Decitabine] (partner 2 µM)
In short: (§1)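 Lung cancer cell lines in 1536-well plates got either a single drug or a fixed anchor-drug dose together with five library-drug doses (not always all listed) in √10 steps, by pin tool, on the day after seeding. Nuclei were counted after 5 days, and relative viability is the treated-to-vehicle ratio of nuclei counts. Values are medians of duplicate plates.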

[1] = compound: CN[C@@H]1C[C@H]2O[C@@](C)([C@@H]1OC)n1c3ccccc3c3c4c(c5c6ccccc6n2c5c31)C(=O)NC4 [Staurosporine] + CS(=O)(=O)N1CCN(Cc2cc3nc(-c4cccc5[nH]ncc45)nc(N4CCOCC4)c3s2)CC1 [Pictilisib] (partner 1 µM)
In short: as §1

Sulindac + Pictilisib = compound: CC1=C(CC(=O)O)c2cc(F)ccc2/C1=C\c1ccc([S+](C)[O-])cc1 [Sulindac] + CS(=O)(=O)N1CCN(Cc2cc3nc(-c4cccc5[nH]ncc45)nc(N4CCOCC4)c3s2)CC1 [Pictilisib] (partner 1 µM)
In short: as §1

[2] = compound: O=c1[nH]cc(F)c(=O)[nH]1 [5-Fluorouracil] + CS(=O)(=O)N1CCN(Cc2cc3nc(-c4cccc5[nH]ncc45)nc(N4CCOCC4)c3s2)CC1 [Pictilisib] (partner 1 µM)
In short: as §1

Row | Cell Line | relative viability (Sulindac + Decitabine; first compound 0.08 µM) | relative viability (Sulindac + Decitabine; first compound 0.253 µM) | relative viability (Sulindac + Decitabine; first compound 0.8 µM) | relative viability (Sulindac + Decitabine; first compound 2.53 µM) | relative viability (Sulindac + Decitabine; first compound 8 µM) | relative viability ([1]; first compound 0.005 µM) | relative viability ([1]; first compound 0.01581 µM) | relative viability ([1]; first compound 0.05 µM) | relative viability ([1]; first compound 0.1581 µM) | relative viability ([1]; first compound 0.5 µM) | relative viability (Sulindac + Pictilisib; first compound 0.08 µM) | relative viability (Sulindac + Pictilisib; first compound 0.253 µM) | relative viability (Sulindac + Pictilisib; first compound 0.8 µM) | relative viability (Sulindac + Pictilisib; first compound 2.53 µM) | relative viability (Sulindac + Pictilisib; first compound 8 µM) | relative viability ([2]; first compound 0.02 µM) | relative viability ([2]; first compound 0.2 µM) | relative viability ([2]; first compound 0.6325 µM) | relative viability ([2]; first compound 2 µM)
1 | NCI-H2085 | 0.497 | 0.556 | 0.545 | 0.525 | 0.5 | 0.369 | 0.261 | 0.282 | 0.351 | 0.226 | 0.459 | 0.415 | 0.433 | 0.377 | 0.447 | 0.461 | 0.504 | 0.445 | 0.507
2 | PC-3 [JPC-3] | 0.777 | 0.791 | 0.838 | 0.77 | 0.855 | 0.655 |  | 0.446 | 0.271 | 0.242 | 0.886 | 0.81 | 0.55 | 0.753 | 0.857 | 0.77 | 0.757 | 0.796 | 0.612
3 | NCI-H838 | 0.497 | 0.476 | 0.425 | 0.45 | 0.507 | 0.19 | 0.151 | 0.172 | 0.144 | 0.126 | 0.519 | 0.466 | 0.377 | 0.426 | 0.603 | 0.414 | 0.402 | 0.306 | 0.269
4 | NCI-H1755 | 0.798 | 0.634 | 0.705 | 0.785 | 0.833 | 0.135 | 0.139 | 0.155 | 0.138 | 0.154 | 0.434 | 0.419 | 0.304 | 0.362 | 0.507 | 0.453 | 0.5 | 0.301 | 0.184
5 | NCI-H1650 | 0.4 | 0.495 | 0.421 | 0.378 | 0.473 | 0.284 | 0.141 | 0.138 | 0.15 | 0.107 | 0.64 | 0.676 | 0.413 | 0.555 | 0.719 | 0.587 | 0.537 | 0.428 | 0.306
6 | NCI-H650 | 0.33 | 0.325 | 0.341 | 0.284 | 0.339 | 0.416 | 0.297 | 0.344 | 0.24 | 0.233 | 0.839 | 0.889 | 0.785 | 0.915 | 0.912 | 0.823 | 0.674 | 0.45 | 0.387
7 | NCI-H1944 | 0.489 | 0.44 | 0.412 | 0.426 | 0.449 | 0.295 |  | 0.26 | 0.231 | 0.184 | 0.345 | 0.347 | 0.325 | 0.342 | 0.388 | 0.4 | 0.357 | 0.295 | 0.243
8 | LK-2 | 0.334 | 0.361 | 0.277 | 0.239 | 0.306 | 0.789 | 0.812 | 0.466 | 0.199 | 0.0791 | 0.551 | 0.675 |  |  | 0.558 | 0.635 | 0.575 | 0.374 | 0.452
9 | HCC-15 | 0.708 | 0.625 | 0.548 | 0.543 | 0.661 | 0.718 |  | 0.566 | 0.216 | 0.113 | 0.861 | 0.817 | 0.526 | 0.735 | 0.814 | 0.903 | 0.762 | 0.539 | 0.315
10 | PC-14 | 0.25 | 0.274 | 0.223 | 0.215 | 0.257 | 0.237 | 0.12 | 0.0413 | 0.0584 | 0.0397 | 0.83 | 0.65 |  | 0.73 | 0.757 | 0.711 | 0.763 | 0.7 | 0.415
11 | HOP-62 | 0.214 | 0.222 | 0.229 | 0.217 | 0.246 | 0.182 | 0.0895 | 0.0986 | 0.0751 | 0.0641 | 1.01 | 0.864 | 0.831 | 0.758 | 0.978 | 0.711 | 0.879 | 0.705 | 0.569
12 | NCI-H322M | 0.599 | 0.614 | 0.657 | 0.631 | 0.699 | 0.683 | 0.384 | 0.312 | 0.309 | 0.252 | 0.579 | 0.508 | 0.419 | 0.545 | 0.539 | 0.564 | 0.536 | 0.529 | 0.427
13 | NCI-H1395 | 0.726 | 0.689 | 0.664 | 0.659 | 0.832 | 0.535 | 0.315 | 0.475 | 0.366 | 0.394 | 0.705 | 0.603 | 0.872 | 0.527 | 0.879 | 0.581 | 0.62 | 0.578 | 0.594
14 | NCI-H661 | 0.648 | 0.544 | 0.523 | 0.574 | 0.609 | 0.345 | 0.265 | 0.277 | 0.245 | 0.271 | 0.421 | 0.412 | 0.358 | 0.514 | 0.461 | 0.35 | 0.469 | 0.376 | 0.433
15 | NCI-H727 | 0.965 | 1.02 | 0.874 | 0.866 | 0.957 | 0.486 | 0.293 | 0.2 | 0.223 | 0.12 | 0.46 | 0.252 | 0.381 | 0.404 | 0.349 | 0.395 | 0.464 | 0.369 | 0.305
16 | NCI-H1734 | 0.524 | 0.522 | 0.435 | 0.523 | 0.496 | 0.317 | 0.175 | 0.174 | 0.105 | 0.0965 | 0.466 | 0.498 | 0.413 | 0.48 | 0.515 | 0.496 | 0.49 | 0.427 | 0.303
17 | EKVX | 0.312 | 0.316 | 0.305 | 0.341 | 0.352 | 0.403 | 0.218 | 0.184 | 0.163 | 0.121 | 0.409 | 0.487 | 0.381 | 0.475 | 0.516 |  |  | 0.151 | 0.115
18 | NCI-H596 | 0.894 | 0.982 |  | 1.2 | 1.1 | 0.407 | 0.222 | 0.198 | 0.129 | 0.105 | 0.391 | 0.378 | 0.413 | 0.37 | 0.411 | 0.47 | 0.375 | 0.365 | 0.365
19 | LCLC-97TM1 | 0.208 | 0.263 | 0.225 | 0.247 | 0.232 | 0.197 | 0.0972 | 0.152 | 0.119 | 0.153 | 0.198 | 0.214 | 0.18 |  | 0.187 | 0.184 | 0.235 | 0.133 | 0.139
20 | COR-L23 | 0.436 | 0.446 | 0.425 | 0.421 | 0.526 | 0.32 | 0.148 | 0.127 | 0.0645 | 0.0442 | 0.987 | 0.933 |  | 0.727 | 1.07 | 0.864 | 0.711 | 0.367 | 0.231
21 | NCI-H1355 | 0.325 | 0.343 | 0.366 | 0.338 | 0.366 | 0.277 | 0.157 | 0.215 | 0.153 | 0.152 | 0.458 | 0.407 | 0.36 | 0.39 | 0.448 | 0.482 | 0.493 | 0.361 | 0.33
22 | EPLC-272H | 0.313 |  | 0.301 | 0.369 | 0.428 | 0.333 | 0.141 | 0.176 | 0.1 | 0.0694 | 0.293 |  | 0.252 | 0.284 | 0.361 | 0.337 | 0.294 | 0.199 | 0.221
23 | ChaGo-K-1 | 0.601 | 0.484 | 0.466 | 0.515 | 0.523 | 0.692 |  | 0.52 | 0.244 |  | 0.808 | 0.645 | 0.74 | 0.647 | 1.45 | 0.747 | 0.919 | 0.48 | 0.645
24 | NCI-H1651 | 0.748 | 0.702 | 0.578 | 0.568 | 0.617 | 0.438 | 0.334 | 0.239 | 0.097 | 0.089 | 0.751 | 0.672 | 0.416 | 0.621 | 0.599 | 0.523 | 0.57 | 0.412 | 0.444
25 | SW 1573 | 0.688 | 0.538 | 0.443 | 0.368 | 0.641 | 0.275 | 0.18 | 0.123 | 0.0832 | 0.0842 | 0.508 | 0.632 | 0.451 | 0.511 | 0.605 |  | 0.597 | 0.519 | 0.328
26 | HCC-44 | 0.976 | 0.909 | 0.871 | 0.918 | 0.961 | 0.147 | 0.152 | 0.13 | 0.133 | 0.131 | 0.403 | 0.562 | 0.537 | 0.687 | 0.589 | 0.784 | 0.58 | 0.46 | 0.33
27 | NCI-H460 | 0.745 | 0.536 | 0.438 | 0.435 | 0.601 | 0.316 |  | 0.228 | 0.0535 | 0.0424 | 0.366 | 0.359 | 0.219 | 0.381 | 0.394 | 0.443 | 0.384 | 0.155 | 0.0868
28 | SK-LU-1 | 0.691 | 0.642 | 0.53 | 0.647 | 0.673 | 0.412 | 0.187 | 0.145 | 0.137 | 0.124 | 0.582 | 0.592 |  | 0.49 | 0.703 | 0.491 | 0.558 | 0.549 | 0.402
29 | LOU-NH91 | 0.776 | 0.8 | 0.715 | 0.798 | 0.873 | 0.521 | 0.38 | 0.338 | 0.277 | 0.279 | 0.584 | 0.514 | 0.536 | 0.512 | 0.574 | 0.512 | 0.47 | 0.388 | 0.34
